Data as given in patent US20070270403A1 (priority 2003, published 2007).
Read-outs that look alike come from different tables or passages of the source.

Columns and labels:
[1] = independent of the rate of metabolism; cited from earlier work
[2] = tested on: Sprague-Dawley laboratory rats; assay: Locomotor activity (ambulations) by infrared photobeams (clozapine studies); type: in vivo, Sprague-Dawley Rattus Norvegicus; conditions: Acute, clozapine 20 mg/kg i.p. + cocaine 10 mg/kg i.p.
Text: Locomotor activity (ambulation) was monitored with infrared photobeams at the same time as DA and 5-HT release in NAcc was detected with BRODERICK PROBES® in conjunction with In Vivo Microvoltammetry. The chamber was faradaic, covered with copper to refract possible electrical artifacts (dimensions: 24 in (width) by 18 in (depth) by 23.5 in (height)). A 16 by 16 array of these infrared photobeams, were held in place by an aluminum frame which was situated ¾ in above the Plexiglas floor of the chamber to detect locomotor activity. Photobeams were sampled by a Pentium computer to define the x-y position of the animal within a 1.5 in resolution every 100 msec. When an x-y position was calculated, it was used to define the frequency of locomotor activity in counts. The locomotor activity system is a modified version of an Activity Pattern Monitor (APM) (San Diego Instruments, San Diego, Calif.). Behavioral data is presented in absolute frequency, i.e., number of counts recorded.
The first hr pre-drug allowed exploratory behavior. Exploratory behavior is defined as open-field behavior of ambulations (forward locomotion) wherein animals respond to the stimuli of a novel environment with high frequency of behavioral counts. The second hr pre-drug allowed the animal to become habituated before treatment.
In the Acute studies, each drug was administered at the end of the habituation period. Baseline (control) values were taken every five min for the last thirty min of the habituation period at which time drug injection(s) took place. Electrochemical recordings for DA and 5-HT release in NAcc, were continued for two hrs; at the same time, locomotor behavior continued to be monitored and recorded with infrared photobeams. At the end of the 2 hr drug(s) study, animals were then placed back in their home cages.
In the Subacute studies, which took place twenty-four hrs later, the animals were again placed in the faradaic behavioral chamber and no further drug was administered. Recordings of separate electrochemical signals for DA and 5-HT release in NAcc, were taken for one hr; at the same time, locomotor behavior was monitored and recorded with infrared photobeams.
Neurochemical and behavioral data, derived from the last thirty minutes of the habituation period, provided the baseline data. […] Where appropriate, data points in the time course were subjected to 95% Confidence Limits (C.L.).

[3] = cited from earlier work
DA release in NAcc = assay: In vivo microvoltammetry, DA release in NAcc (clozapine studies); design: species or system Sprague-Dawley Rattus Norvegicus; conditions: Acute, clozapine 20 mg/kg i.p. + cocaine 10 mg/kg i.p.
Protocol: (§1) There is an increasing awareness that a psychosis, similar to that of schizophrenic psychosis, can be derived from cocaine addiction. […] Release mechanisms for monoamines, were determined by using a depolarization blocker, gamma-butyrolactone (γBL). […] Acute and Subacute studies were performed for each treatment group.
(§2) The stereotaxic equipment was purchased from David Kopf Instruments, Tujunga, Calif. A Ag/AgCl reference electrode was placed in contact with dura, 7 mm anteriorally and contralaterally to the indicator microelectrode. A stainless steel auxiliary microelectrode was placed in contact with dura. BRODERICK PROBE® microelectrodes were manufactured on site.
(§3) In vivo microvoltammetric studies on conscious Sprague-Dawley laboratory rats were begun nine to fifteen days after the aseptic surgical operations were performed. On each experimental day, the animal was placed in a Plexiglas-copper faradaic chamber. The three-microelectrode assembly, enclosed within the animal's prosthetic acrylic cap, was connected to a CV37 detector by means of a mercury commutator (Br. Res. Instr., Princeton, N.J.), a flexible cable, and a mating connector (BJM Electronics, Staten Island, N.Y.). The CV37 detector was electrically connected to a Minigard surge suppresser (Jefferson Electric, Magnetek, N.Y.) which was then connected to an electrical ground in isolation. […] Each animal was used as its own control. Changes in synaptic concentrations of DA and 5-HT are presented as percent change (% of control) in order to minimize normal between-animal variations. […] In vivo microvoltammetric scans were recorded in sec and repeated every five min for a period of 2 hrs before each treatment and a period of two hrs after each treatment.
(§4) Potentials were applied with a CV37 detector (BAS, West Lafayette, Ind.). Potentials were applied from −0.2V to +0.4V with respect to a Ag/AgCl (1M NaCl) electrode, at a scan rate of 10 mV/sec at time constants of 5 and 1 tau. One scan was completed in 60 sec. Non-faradaic charging current was eliminated in the first 25 sec.
(§5) Calibration curves were determined experimentally, in vitro, in a freshly prepared deoxygenated physiological saline-phosphate buffer solution (0.01 M, pH=7.4). We use ultra pure Nitrogen (N2) (T. W. Smith Corp., Bklyn, N.Y.) to deoxygenate the buffer solution. […] Calibration studies were also performed in freshly prepared deoxygenated buffer solutions containing phosphotidylethanolamine (PEA), combined with bovine serum albumin (BSA) (Sigma Aldrich, St. Louis, Mo.), a solution which closely mimics brain constituents. […] Detection limits for basal synaptic concentrations of DA and 5-HT in NAcc were 12 nM and 2 nM respectively.

5-HT release in NAcc = assay: In vivo microvoltammetry, 5-HT release in NAcc (clozapine studies); design: species or system Sprague-Dawley Rattus Norvegicus; conditions: Acute, clozapine 20 mg/kg i.p. + cocaine 10 mg/kg i.p.
Protocol: as §1, §2, §3, §4, §5

[4] = cited from earlier work; remark: listed apart in the source

Compound: Cc1nc2n(c(=O)c1CCN1CCC(c3noc4cc(F)ccc34)CC1)CCCC2O (centres unmarked) [9-hydroxyrisperidone]
- Time for which the metabolite is active [1]: 22 h

Compound: CN1CCN(C2=Nc3cc(Cl)ccc3Nc3ccccc32)CC1 [Clozapine, clozapine]
- Average reduction of locomotor activity (ambulation counts) produced by cocaine ([2]; first half hr): 500 counts
- Average reduction of locomotor activity (ambulation counts) produced by cocaine ([2]; next hr of study): 150 counts
- half-life ([3]; at higher doses): 4 to 66 h
- half-life ([3]; at lower doses): 8 h
- Average reduction of cocaine-induced increases in DA release in NAcc (DA release in NAcc; first hr of study): 40%
- Average reduction of cocaine-induced increases in DA release in NAcc (DA release in NAcc; second hr of study): 50%
- Average reduction of cocaine-induced increases in 5-HT release in NAcc (5-HT release in NAcc; first hr of study): 138%
- Average reduction of cocaine-induced increases in 5-HT release in NAcc (5-HT release in NAcc; second hr of study): 113%

Compound: CN1[C@H]2CC[C@@H]1[C@@H](C(=O)O)[C@@H](OC(=O)c1ccccc1)C2 [benzoylecgonine]
- elimination half-life ([4]; after bolus injections (e.g., 14.7 umol/kg)): 0.667 to 0.733 h

Compound: COC(=O)[C@H]1[C@@H](OC(=O)c2ccccc2)C[C@@H]2CC[C@H]1N2 [norcocaine]
- Detection in brain ([4]; after i.v. cocaine (20-40 mg/kg)): not detected at all
